Assay [1] deals with A431. Put plainly: Inhibition of cell growth by incorporation of [3H]-thymidine, A431. It counts as cell-based, human. The conditions noted are these: Homo sapiens.
Description: (§1) Representative compounds of this invention were evaluated for their ability to inhibit the growth of the cell lines described below in vitro. The inhibition is quantitated by measuring the decrease in the incorporation of radio-labeled thymidine when the cells are grown in the presence of the inhibitor. […] Cells were routinely grown in a humidified incubator in 5% CO2 in air.
(§2) Cells were seeded at 10,000 cells/well in 96 well plates in complete media and allowed to grow to log phase. At this stage the complete media was replaced with media containing 0.5% FBS (for cells growing in 10% FBS) or media lacking epidermal growth factor (EGF) (for cells growing in serum free media). […] Media with test compound was then removed and complete media was added back. The cells were allowed to grow for 18 hours. This is followed by incubation in [^3H]thymidine (1mCi/ml in serum/EGF media) for 4 hours. Cells were lysed in 0.5 M NaOH for at least 30 min at 37°C and radioactivity analyzed.
(§3) The % inhibition of the compound evaluated was determined for at least three different concentrations and the IC50 value evaluated from the dose response curve. […] CPM(control) is in units of counts per minute and is a number expressing the amount of [^3H]thymidine incorporated onto the DNA when cells are grown in the absence of test compound as measured by liquid scintillation counting.
The subject of a further assay is NHEK. Put plainly: Inhibition of cell growth by incorporation of [3H]-thymidine, NHEK. It counts as cell-based, human. The conditions noted are these: Homo sapiens, read-out: IC50 NHEK.
The test system of a further assay is HTB161. The assay can be described thus: Inhibition of cancer cell growth as measured by cell number, HTB161. The conditions noted are these: Homo sapiens, 48 h, read-out: IC50 HTB161. It counts as cell-based.
The next assay concerns A27805. The assay can be described thus: Inhibition of cancer cell growth as measured by cell number, A27805. Format: cell-based. The conditions noted are these: Homo sapiens, 48 h, read-out: IC50 A27805.
Another assay has as its system A2780DDP. Put plainly: Inhibition of cancer cell growth as measured by cell number, A2780DDP. As to conditions: Homo sapiens, 48 h, read-out: IC50 A2780DDP. It counts as cell-based.
The test system of a further assay is MIP. The assay can be described thus: Inhibition of cancer cell growth as measured by cell number, MIP. It counts as cell-based. The conditions noted are these: Homo sapiens, read-out: IC50 MIP.
In a further assay the test system is SW620. The assay can be described thus: Inhibition of cancer cell growth as measured by cell number, SW620.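 Note: SW620 was included as a cell line with little or no EGFR or HER2/neu expression, in contrast to receptor-overexpressing lines.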 Format: cell-based, human. As to conditions: Homo sapiens, SW-620, 48 h, read-out: IC50 SW620, cell number, Sulforhodamine B, 48 hours exposure.
The test system of a further assay is COLO205. The assay can be described thus: Inhibition of cancer cell growth as measured by cell number, COLO205. Format: cell-based. As to conditions: Homo sapiens, COLO 205, 48 h, read-out: IC50 COLO205.
Another assay has as its system CX1. Put plainly: Inhibition of cancer cell growth as measured by cell number, CX1. Format: cell-based. As to conditions: Homo sapiens, CX-1, 48 h, read-out: IC50 CX1.
In a further assay the test system is CACO2. Put plainly: Inhibition of cancer cell growth as measured by cell number, CACO2. Format: cell-based. As to conditions: Homo sapiens, Caco-2, 48 h, read-out: IC50 CACO2.
Another assay deals with HCT15. The assay can be described thus: Inhibition of cancer cell growth as measured by cell number, HCT15. Format: cell-based. As to conditions: Homo sapiens, HCT-15, 48 h, read-out: IC50 HCT15.
The next assay concerns LS174T. The assay can be described thus: Inhibition of cancer cell growth as measured by cell number, LS174T. It counts as cell-based. As to conditions: Homo sapiens, 48 h, read-out: IC50 LS174T.
The subject of the next assay is SW948. Put plainly: Inhibition of cancer cell growth as measured by cell number, SW948. It counts as cell-based. As to conditions: Homo sapiens, SW948, 48 h, read-out: IC50 SW948.
The next assay relates to CCL228. Put plainly: Inhibition of cancer cell growth as measured by cell number, CCL228. Format: cell-based. As to conditions: Homo sapiens, 48 h, read-out: IC50 CCL228.
In a further assay the test system is MCF7. Put plainly: Inhibition of cancer cell growth as measured by cell number, MCF7.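 Note: MCF7 was included as a line with little or no EGFR or HER2/neu expression, in contrast to the receptor-overexpressing lines of the panel.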 The conditions noted are these: Homo sapiens, MCF7, 48 h, read-out: IC50 MCF7, cell number, Sulforhodamine B, 48 hours exposure. It counts as cell-based, human.
Another assay has as its system B7474. The assay can be described thus: Inhibition of cancer cell growth as measured by cell number, B7474. The conditions noted are these: Homo sapiens, 48 h, read-out: IC50 B7474. It counts as cell-based.
Another assay relates to T47D. Put plainly: Inhibition of cancer cell growth as measured by cell number, T47D. It counts as cell-based. As to conditions: Homo sapiens, 48 h, read-out: IC50 T47D.
The next assay deals with LX1. The assay can be described thus: Inhibition of cancer cell growth as measured by cell number, LX1. Format: cell-based. As to conditions: Homo sapiens, LX-1, 48 h, read-out: IC50 LX1.
The test system of a further assay is A549. Put plainly: Inhibition of cancer cell growth as measured by cell number, A549. It counts as cell-based. The conditions noted are these: Homo sapiens, A549, 48 h, read-out: IC50 A549.
The subject of another assay is LOX. The assay can be described thus: Inhibition of cancer cell growth as measured by cell number, LOX.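 Note: LOX cells served as a line with low or absent EGFR and HER2/neu expression, in contrast to receptor-overexpressing lines.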 Format: cell-based, human. As to conditions: Homo sapiens, LOX, 48 h, read-out: IC50 LOX, cell number, Sulforhodamine B, 48 hours exposure.
Assay [2] relates to A431. Put plainly: Inhibition of cancer cell growth as measured by cell number, A431.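 Note: human A431 line, picked because it overexpresses epidermal growth factor receptor (EGFR).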 Format: cell-based, human. As to conditions: Homo sapiens, A-431, 48 h, read-out: IC50 A431, cell number, Sulforhodamine B, 48 hours exposure.
Excerpt: (§4) The cell lines were chosen since they overexpressed epidermal growth factor receptor (EGFR) (i.e. A431) or HER2/neu (SKBR3), or had little to no expression of the these receptors (SW620, LOX, MCF7).
A further assay concerns NEC. Put plainly: Inhibition of cancer cell growth as measured by cell number, NEC. Format: cell-based. The conditions noted are these: Homo sapiens, 48 h, read-out: IC50 NEC.
Another assay has as its system DU145. Put plainly: Inhibition of cancer cell growth as measured by cell number, DU145. Format: cell-based. The conditions noted are these: Homo sapiens, DU-145, 48 h, read-out: IC50 DU145.
For another assay, the system named is PC3. Put plainly: Inhibition of cancer cell growth as measured by cell number, PC3. It counts as cell-based. As to conditions: Homo sapiens, PC-3, 48 h, read-out: IC50 PC3.
The next assay relates to LNCAP. The assay can be described thus: Inhibition of cancer cell growth as measured by cell number, LNCAP. It counts as cell-based. The conditions noted are these: Homo sapiens, 48 h, read-out: IC50 LNCAP.
In a further assay the test system is HL60. The assay can be described thus: Inhibition of cancer cell growth as measured by cell number, HL60. The conditions noted are these: Homo sapiens, HL-60, 48 h, read-out: IC50 HL60. Format: cell-based.
A further assay relates to CCRF-CFM. Put plainly: Inhibition of cancer cell growth as measured by cell number, CCRF-CFM. It counts as cell-based. The conditions noted are these: Homo sapiens, 48 h, read-out: IC50 CCRF-CFM.
In the next assay the test system is SKBR3. Put plainly: Inhibition of cancer cell growth as measured by cell number, SKBR3.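 Note: SK-BR-3 cells were selected as a line overexpressing HER2/neu.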 Format: cell-based, human. As to conditions: Homo sapiens, SK-BR-3, 48 h, read-out: IC50 SKBR3, cell number, Sulforhodamine B, 48 hours exposure.
Assay [3] concerns the target recombinant human MEK 1 (MAPKK) and recombinant human ERK2 (MAPK). Put plainly: Mitogen Activated Protein Kinase (MAPK) assay, two component coupled MEK 1 / ERK2.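 Note: MEK 1-activated ERK2 phosphorylates MBP or Myc peptide with 33P-ATP, filter capture and scintillation counting, inhibitor preincubated with ERK2 30 min at 0 °C, inhibition relative to uninhibited control.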 Format: biochemical. As to conditions: separate entries for the same compound = evaluated more than one time.
Assay [4] has as its target epidermal growth factor receptor kinase (Homo sapiens, UniProt P00533). The assay can be described thus: biochemical.
Description: The enzyme was obtained as a membrane extract of A431 cells (American Type Culture Collection, Rockville, MD). A431 cells were grown in T175 flasks to 80% confluency. The cells were washed twice with phosphate buffered saline (PBS) without Ca^2+. Flasks were rotated for 1.5 hours in 20 ml PBS with 1.0 mM ethylenediaminetetraacetic acid (EDTA) at room temperature and centrifuged at 600g for 10 minutes. The cells were solubilized in 1 ml per 5 x 10^6 cells of cold lysis buffer {10mM 4-(2-hydroxyethyl)-1-piperazineethane-sulfonic acid (HEPES), pH 7.6, 10 mM NaCl, 2mM EDTA, 1mM phenylmethyl-sulfonyl-fluoride (PMSF), 10 mg/ml aprotinin, 10 mg/ml leupeptin, 0.1 mM sodium orthovanadate} in a Dounce homogenizer with 10 strokes on ice. The lysate was centrifuged at 600g for 10 minutes first to clear cell debris and the supernatant further centrifuged at 100,000 g for 30 min at 4°C. The membrane pellet was suspended in 1.5 ml HNG buffer (50 mM HEPES, pH 7.6, 125 mM NaCl, 10% glycerol). The membrane extract was divided into aliquots, immediately frozen in liquid nitrogen and stored at -70°C.
Compounds to be evaluated were made into 10 mg/ml stock solutions in 100% dimethylsulfoxide (DMSO). Prior to experiment, stock solutions were diluted to 500 mM with buffer (30 mM Hepes pH 7.4) and then serially diluted to the desired concentration.
An aliquot of the A431 membrane extract (10 mg/ml) was diluted in 30 mM HEPES (pH 7.4) to give a protein concentration of 50 ug/ml. […] To this was added the ^33p-ATP (10 mCi/ml) diluted 1:10 in assay buffer along with the substrate peptide at a concentration of 0.5 mM (control reactions get no test compound) and the reaction was allowed to proceed for 30 min at 30°C. The reaction was stopped with 10% TCA and left on ice for at least 10 min after which tubes were microcentrifuged at full speed for 15 min. The a portion of the supernatants were spotted on P81 phosphocellulose discs and washed twice in 1% acetic acid then water for 5 min each followed by scintillation counting. […] The % inhibition of the test compound was determined for at least three different concentrations and the IC50 value was evaluated from the dose response curve. […] CPM(control) is in units of counts per minute and was a number expressing the amount of radiolabeled ATP (g-^33P) incorporated into the RR-SRC peptide substrate by the enzyme after 30 minutes at 30°C in the absence of test compound as measured by liquid scintillation counting. The CPM values were corrected for the background counts produced by ATP in the absence of the enzymatic reaction. The IC50 values reported in TABLE 1 are averages of the number of tests conducted.

Molecules are shown by their SMILES. ≈ marks a conversion by molar mass, not a printed value. Where two headings read alike, the source gives them in different places. A value given as a limit tells only on which side of the number the result lay.

Sequence of epidermal growth factor receptor kinase (P00533 25-1210): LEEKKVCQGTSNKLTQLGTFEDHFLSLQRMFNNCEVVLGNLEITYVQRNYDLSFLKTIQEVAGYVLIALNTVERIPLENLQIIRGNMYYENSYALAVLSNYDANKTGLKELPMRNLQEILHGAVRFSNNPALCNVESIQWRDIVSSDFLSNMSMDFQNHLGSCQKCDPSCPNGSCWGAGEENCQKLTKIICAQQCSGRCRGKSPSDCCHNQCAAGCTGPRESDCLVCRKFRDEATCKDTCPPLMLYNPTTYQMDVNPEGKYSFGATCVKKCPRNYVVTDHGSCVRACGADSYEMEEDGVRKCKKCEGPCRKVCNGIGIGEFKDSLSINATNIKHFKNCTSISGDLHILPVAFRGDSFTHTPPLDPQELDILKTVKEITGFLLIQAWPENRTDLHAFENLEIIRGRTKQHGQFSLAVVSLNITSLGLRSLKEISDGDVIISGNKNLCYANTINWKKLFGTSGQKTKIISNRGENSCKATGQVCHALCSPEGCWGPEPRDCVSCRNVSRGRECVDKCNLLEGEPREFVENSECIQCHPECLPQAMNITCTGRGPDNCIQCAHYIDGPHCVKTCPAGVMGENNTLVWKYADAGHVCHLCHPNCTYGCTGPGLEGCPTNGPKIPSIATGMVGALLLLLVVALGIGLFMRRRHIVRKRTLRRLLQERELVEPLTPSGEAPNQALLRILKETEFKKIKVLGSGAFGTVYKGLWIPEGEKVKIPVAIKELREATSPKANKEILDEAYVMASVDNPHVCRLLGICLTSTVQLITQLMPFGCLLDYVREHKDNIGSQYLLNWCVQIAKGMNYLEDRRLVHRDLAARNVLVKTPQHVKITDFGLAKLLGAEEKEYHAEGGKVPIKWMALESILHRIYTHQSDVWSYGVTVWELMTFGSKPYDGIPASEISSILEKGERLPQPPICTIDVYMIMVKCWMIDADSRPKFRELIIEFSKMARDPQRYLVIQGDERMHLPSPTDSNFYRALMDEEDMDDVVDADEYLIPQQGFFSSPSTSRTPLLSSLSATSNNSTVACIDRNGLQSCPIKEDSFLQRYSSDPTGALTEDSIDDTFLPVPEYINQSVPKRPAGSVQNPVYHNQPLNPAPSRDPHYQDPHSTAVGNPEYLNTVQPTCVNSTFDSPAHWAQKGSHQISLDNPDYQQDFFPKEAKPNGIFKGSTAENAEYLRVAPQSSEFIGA
Excerpt for LOX: as §4
Excerpt for MCF7: as §4
Description for NHEK: as §1, §2, §3
Excerpt for SKBR3: as §4
Excerpt for SW620: as §4

The IC50 is the concentration that gives 50% inhibition. Consider `N#Cc1cnc2ccc([N+](=O)[O-])cc2c1Nc1ccc(Br)c(Br)c1` [Example 20, 4-[(3,4-Dibromophenyl)amino]-6-nitro-3-quinolinecarbonitrile], for which the IC50 in the assay with A431 [1] (A-431, [3H]-thymidine incorporation, A431, read-out: IC50 A431) is 35 µM; in the assay with NHEK ([3H]-thymidine incorporation), 650 nM.

As to `COc1cc2ncc(C#N)c(Nc3cccc(Cl)c3)c2cc1OC` [Example 41, 4-[(3-Chlorophenyl)amino]-6,7-dimethoxy-3-quinolinecarbonitrile], the IC50 with A431 [1] (A-431, read-out: IC50 A431) is 1.5 µM; with HTB161 it was 7.87 µg/mL (≈ 23.2 µM); in the assay on A27805 it was 7.73 µg/mL (≈ 22.7 µM); with A2780DDP, 6.25 µg/mL (≈ 18.4 µM); in the assay on MIP (cell number, Sulforhodamine B, 48 hours exposure, Table 4), 4.09 µg/mL (≈ 12 µM); in the assay with SW620 (Table 4) it was 14.7 µg/mL (≈ 43.1 µM). In addition, the IC50 in the assay on SW620 (Table 8) was found to be 2.23 µg/mL (≈ 6.56 µM); in the assay with COLO205, 6.13 µg/mL (≈ 18 µM); in the assay with CX1, 7.25 µg/mL (≈ 21.3 µM); in the assay on CACO2, 2.11 µg/mL (≈ 6.21 µM); with HCT15, 4.21 µg/mL (≈ 12.4 µM); in the assay with LS174T, 2.92 µg/mL (≈ 8.61 µM). Moreover, the IC50 in the assay on SW948 was determined as 14.1 µg/mL (≈ 41.6 µM); in the assay with CCL228 it was 18.5 µg/mL (≈ 54.4 µM); with MCF7 (Table 5), 24.8 µg/mL (≈ 73.1 µM); with MCF7 (Table 8), 6.86 µg/mL (≈ 20.2 µM); with B7474, 6.26 µg/mL (≈ 18.4 µM); with T47D, 8.5 µg/mL (≈ 25 µM). For the same compound, the concentration for half-maximal inhibition (IC50) in the assay on LX1 amounted to 48.7 µg/mL (≈ 143 µM); in the assay with A549, 25 µg/mL (≈ 73.5 µM); in the assay with LOX (Table 6), 0.961 µg/mL (≈ 2.83 µM); in the assay with LOX (Table 8), 1.33 µg/mL (≈ 3.91 µM); in the assay with A431 [2] (Table 6), 0.813 µg/mL (≈ 2.39 µM); in the assay with A431 [2] (Table 8) it was 0.24 µg/mL (≈ 0.706 µM). Besides, the IC50 with NEC is 8.46 µg/mL (≈ 24.9 µM); in the assay on DU145 it was 0.913 µg/mL (≈ 2.69 µM); in the assay on PC3, 17.5 µg/mL (≈ 51.5 µM); in the assay on LNCAP, 3.53 µg/mL (≈ 10.4 µM); with HL60, 3.23 µg/mL (≈ 9.52 µM); in the assay on CCRF-CFM it was 8.29 µg/mL (≈ 24.4 µM). Also, the IC50 worked out at 20.6 µg/mL (≈ 60.8 µM) in the assay on SKBR3 (Table 7), 0.48 µg/mL (≈ 1.41 µM) with SKBR3 (Table 8), 1400 nM in [3] and 200 nM in assay [4].

For `CC#CC(=O)Nc1ccc2ncc(C#N)c(Nc3cccc(Br)c3)c2c1` [Example 15, N-[4-[(3-Bromophenyl)amino]-3-cyano-6-quinolinyl]-2-butynamide], the IC50 in the assay with NHEK stood at 4000 nM; in the assay on HTB161, 33 µg/mL (≈ 81.4 µM); with A27805 it was 33 µg/mL (≈ 81.4 µM); with A2780DDP it was 33 µg/mL (≈ 81.4 µM); in the assay with MIP (48 h) it was 33 µg/mL (≈ 81.4 µM); in the assay with SW620 (Table 4), 33 µg/mL (≈ 81.4 µM). Moreover, the IC50 was 33 µg/mL (≈ 81.4 µM) with COLO205; 33 µg/mL (≈ 81.4 µM) in the assay with CX1; 2.41 µg/mL (≈ 5.94 µM) with CACO2; above 33 µg/mL with HCT15; above 33 µg/mL in the assay with LS174T; above 33 µg/mL with SW948. Also, the IC50 with CCL228, in the assay on MCF7 (Table 5), with B7474, in the assay with T47D, in the assay on LX1 and in the assay on A549 was above 33 µg/mL each time. Besides, the IC50 was above 33 µg/mL in the assay with LOX (Table 6); 22 µg/mL (≈ 54.3 µM) with A431 [2] (Table 6); above 33 µg/mL in the assay on NEC; 18 µg/mL (≈ 44.4 µM) in the assay on DU145; above 33 µg/mL in the assay with PC3; above 33 µg/mL in the assay with LNCAP. The IC50 is above 33 µg/mL with HL60; above 33 µg/mL in the assay with CCRF-CFM; above 33 µg/mL in the assay on SKBR3 (Table 7); above 100000 nM in assay [3]; 0.6 nM in assay [4].

For the origin of these results see patent EP0973746B1, “SUBSTITUTED 3-CYANO QUINOLINES” (Wyeth Holdings Corporation, priority 1997, dated 1998).
